{
  "source": "ChEMBL document CHEMBL1201862",
  "about": "“PubChem BioAssay data set” (2004)",
  "key": {"[1]": {"assay": "Luminescence Cell-Based Dose Confirmation HTS to Identify Activators of 5'UTR Stem-Loop Driven Alpha-Synuclein mRNA Translation in H4 Neuroglioblastoma Cells. [Related pubchem assays: 1829 (Project Summary), 1814 (Primary HTS)]", "assay_type": "functional"}, "[2]": {"assay": "Luminescence Cell-Based Dose Response HTS to Identify Activators of Luciferase Translation or Activity in H4 […] Cells. [Related pubchem assays: 1829 (Project Summary), 1814 (Primary HTS)]", "assay_type": "functional"}, "[3]": {"test_system": "H4", "assay": "Luminescence Cell-Based Dose Response HTS to Identify Activators of 5'UTR Stem-Loop Driven Prion Protein mRNA Translation in H4 Neuroglioblastoma Cells. [Related pubchem assays: 1829 (Project Summary), 1814 (Primary HTS)]", "assay_type": "functional", "details": "Homo sapiens"}, "[4]": {"assay": "microbe, parasite or virus in culture", "assay_type": "functional", "details": "Mycobacterium tuberculosis"}, "[5]": {"assay": "Luminescence Cell-Based Dose Retest to Confirm Inhibitors of Cancer Stem Cells. [Related pubchem assays (depositor defined):AID2717, AID2721]", "assay_type": "functional", "details": "Homo sapiens"}, "[6]": {"assay": "Shn3 3'UTR reporter inhibitors, dose response, cell-based, Clone20 osteoblasts, firefly luciferase, cherry-picked (AID 624132)", "assay_type": "functional"}, "[7]": {"assay": "HepG2 cell cytotoxicity, dose response, cytotoxicity control for Shn3 inhibitor project, CellTiter-Glo, cherry-picked (AID 624134)", "assay_type": "functional, cell-based"}, "[8]": {"assay": "control 3'UTR Renilla luciferase suppression, dose response, counter-screen for Shn3 inhibitor project, cell-based, Clone20-Shn3RL, cherry-picked (AID 624133)", "assay_type": "functional"}, "[9]": {"molecular_target": "T1, Fatty acid synthase (Homo sapiens, UniProt P49327)", "T1 sequence (P49327 whole entry, the tested form may be a part)": "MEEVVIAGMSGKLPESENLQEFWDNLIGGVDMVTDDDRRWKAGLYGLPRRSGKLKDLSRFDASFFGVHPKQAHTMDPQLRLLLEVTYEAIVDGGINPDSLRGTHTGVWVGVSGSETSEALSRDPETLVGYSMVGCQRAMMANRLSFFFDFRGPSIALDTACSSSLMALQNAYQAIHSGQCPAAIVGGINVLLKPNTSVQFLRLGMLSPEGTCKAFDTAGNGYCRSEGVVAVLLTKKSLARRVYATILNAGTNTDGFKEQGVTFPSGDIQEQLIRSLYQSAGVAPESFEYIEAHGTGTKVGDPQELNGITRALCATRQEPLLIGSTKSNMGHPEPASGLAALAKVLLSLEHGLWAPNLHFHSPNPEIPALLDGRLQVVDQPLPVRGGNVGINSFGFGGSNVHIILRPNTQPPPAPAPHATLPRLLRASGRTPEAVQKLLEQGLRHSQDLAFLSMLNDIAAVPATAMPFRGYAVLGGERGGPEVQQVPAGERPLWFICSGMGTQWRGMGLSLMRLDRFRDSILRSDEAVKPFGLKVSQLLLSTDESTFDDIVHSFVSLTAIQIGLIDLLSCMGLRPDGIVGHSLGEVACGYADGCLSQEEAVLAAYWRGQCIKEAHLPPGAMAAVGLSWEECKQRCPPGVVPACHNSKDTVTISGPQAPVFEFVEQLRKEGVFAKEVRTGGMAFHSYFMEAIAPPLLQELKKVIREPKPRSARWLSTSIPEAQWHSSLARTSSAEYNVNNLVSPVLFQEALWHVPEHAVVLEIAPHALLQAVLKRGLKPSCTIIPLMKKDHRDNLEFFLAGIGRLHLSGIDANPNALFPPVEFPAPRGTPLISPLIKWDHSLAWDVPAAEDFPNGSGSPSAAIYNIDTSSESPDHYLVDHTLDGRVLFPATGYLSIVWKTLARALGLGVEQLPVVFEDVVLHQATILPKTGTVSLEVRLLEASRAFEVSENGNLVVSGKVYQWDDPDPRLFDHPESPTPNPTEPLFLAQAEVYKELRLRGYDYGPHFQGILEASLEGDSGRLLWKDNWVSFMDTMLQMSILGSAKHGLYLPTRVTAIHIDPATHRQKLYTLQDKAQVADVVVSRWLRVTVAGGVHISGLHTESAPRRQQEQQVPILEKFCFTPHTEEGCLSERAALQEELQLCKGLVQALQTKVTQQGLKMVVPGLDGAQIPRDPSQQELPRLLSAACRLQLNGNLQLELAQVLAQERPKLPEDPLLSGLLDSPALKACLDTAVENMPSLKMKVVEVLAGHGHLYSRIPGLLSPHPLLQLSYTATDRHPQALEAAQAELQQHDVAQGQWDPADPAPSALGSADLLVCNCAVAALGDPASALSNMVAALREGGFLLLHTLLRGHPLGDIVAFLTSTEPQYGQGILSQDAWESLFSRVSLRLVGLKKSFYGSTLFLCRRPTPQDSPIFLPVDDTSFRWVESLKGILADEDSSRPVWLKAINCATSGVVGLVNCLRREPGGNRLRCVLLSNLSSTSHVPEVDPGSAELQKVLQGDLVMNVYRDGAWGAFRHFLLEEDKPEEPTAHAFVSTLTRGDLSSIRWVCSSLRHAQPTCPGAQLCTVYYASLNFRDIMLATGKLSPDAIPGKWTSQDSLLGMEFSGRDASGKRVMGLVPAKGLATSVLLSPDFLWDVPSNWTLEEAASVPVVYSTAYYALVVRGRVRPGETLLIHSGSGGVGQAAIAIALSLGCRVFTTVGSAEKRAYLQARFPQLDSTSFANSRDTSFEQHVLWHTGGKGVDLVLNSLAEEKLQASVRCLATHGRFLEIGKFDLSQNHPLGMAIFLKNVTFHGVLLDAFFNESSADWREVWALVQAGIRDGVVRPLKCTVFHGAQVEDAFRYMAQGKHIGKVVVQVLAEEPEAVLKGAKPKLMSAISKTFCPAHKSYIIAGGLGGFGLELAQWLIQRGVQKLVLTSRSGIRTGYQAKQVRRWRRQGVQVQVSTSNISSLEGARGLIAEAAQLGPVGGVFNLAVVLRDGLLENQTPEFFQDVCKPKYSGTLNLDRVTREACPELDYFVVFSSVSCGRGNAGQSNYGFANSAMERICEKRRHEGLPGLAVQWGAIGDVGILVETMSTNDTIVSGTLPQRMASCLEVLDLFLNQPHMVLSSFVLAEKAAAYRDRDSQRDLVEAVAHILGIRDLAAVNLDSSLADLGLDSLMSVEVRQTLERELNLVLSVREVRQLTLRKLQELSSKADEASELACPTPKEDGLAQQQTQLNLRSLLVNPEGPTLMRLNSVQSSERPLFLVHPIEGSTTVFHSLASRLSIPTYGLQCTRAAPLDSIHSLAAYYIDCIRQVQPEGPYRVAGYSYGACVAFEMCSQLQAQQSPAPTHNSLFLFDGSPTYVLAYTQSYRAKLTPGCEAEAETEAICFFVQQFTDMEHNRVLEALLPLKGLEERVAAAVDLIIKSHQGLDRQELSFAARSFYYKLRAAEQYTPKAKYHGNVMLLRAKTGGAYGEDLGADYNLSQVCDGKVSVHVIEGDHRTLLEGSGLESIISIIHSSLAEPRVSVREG", "assay": "FAS thioesterase domain inhibitors, dose response, biochemical, endpoint fluorescence intensity, uHTS hits (AID 624327);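 also: fluorescence from hydrolysis of an O-methyl fluorescein acyl ester substrate by the enzyme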", "assay_type": "functional"}, "[10]": {"molecular_target": "T1, Fatty acid synthase", "assay": "FAS thioesterase domain inhibitors, dose response, biochemical, kinetic fluorescence intensity (AID 624326);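 also: rate of fluorescence rise from hydrolysis of a fluorogenic O-methyl fluorescein ester substrate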", "assay_type": "functional"}, "[11]": {"molecular_target": "T2, Protein skinhead-1 (Caenorhabditis elegans, UniProt P34707)", "T2 sequence (P34707 whole entry)": "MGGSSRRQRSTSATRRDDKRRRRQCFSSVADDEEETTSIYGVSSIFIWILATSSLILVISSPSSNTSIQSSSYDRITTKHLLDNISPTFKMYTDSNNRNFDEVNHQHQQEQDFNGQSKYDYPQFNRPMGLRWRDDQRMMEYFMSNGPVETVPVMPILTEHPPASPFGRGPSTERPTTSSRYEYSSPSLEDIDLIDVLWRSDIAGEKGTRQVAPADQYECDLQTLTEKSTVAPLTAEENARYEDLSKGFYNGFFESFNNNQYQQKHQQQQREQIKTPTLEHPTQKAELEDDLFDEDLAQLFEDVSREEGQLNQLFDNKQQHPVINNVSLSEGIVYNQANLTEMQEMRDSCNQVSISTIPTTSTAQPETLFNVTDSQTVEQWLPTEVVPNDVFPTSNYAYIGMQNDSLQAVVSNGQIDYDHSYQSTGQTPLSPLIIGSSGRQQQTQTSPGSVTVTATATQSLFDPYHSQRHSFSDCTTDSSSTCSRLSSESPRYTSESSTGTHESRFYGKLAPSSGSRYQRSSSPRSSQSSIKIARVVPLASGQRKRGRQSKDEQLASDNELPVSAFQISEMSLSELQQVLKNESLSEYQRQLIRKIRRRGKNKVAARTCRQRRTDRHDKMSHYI", "assay_type": "functional"}, "[12]": {"test_system": "P388/ADR", "assay": "cells", "assay_type": "functional", "details": "Mus musculus, P388/ADR"}, "[13]": {"test_system": "SN12K1", "assay": "cells", "assay_type": "functional", "details": "Homo sapiens"}, "[14]": {"test_system": "P388", "assay": "cells", "assay_type": "functional", "details": "Mus musculus, P388"}, "[15]": {"test_system": "Streptococcus sp. 'group A'", "assay": "growth inhibition of control SK(-) GAS strain, dose response, counter-screen for streptokinase expression inhibitor project, luminescence, kanamycin, BacTiterGlo, confirmation (AID 1900)", "assay_type": "functional, organism-based"}, "[16]": {"molecular_target": "T3, Streptokinase A (Streptococcus pyogenes serotype M1, UniProt P10520)", "T3 sequence (P10520 whole entry)": "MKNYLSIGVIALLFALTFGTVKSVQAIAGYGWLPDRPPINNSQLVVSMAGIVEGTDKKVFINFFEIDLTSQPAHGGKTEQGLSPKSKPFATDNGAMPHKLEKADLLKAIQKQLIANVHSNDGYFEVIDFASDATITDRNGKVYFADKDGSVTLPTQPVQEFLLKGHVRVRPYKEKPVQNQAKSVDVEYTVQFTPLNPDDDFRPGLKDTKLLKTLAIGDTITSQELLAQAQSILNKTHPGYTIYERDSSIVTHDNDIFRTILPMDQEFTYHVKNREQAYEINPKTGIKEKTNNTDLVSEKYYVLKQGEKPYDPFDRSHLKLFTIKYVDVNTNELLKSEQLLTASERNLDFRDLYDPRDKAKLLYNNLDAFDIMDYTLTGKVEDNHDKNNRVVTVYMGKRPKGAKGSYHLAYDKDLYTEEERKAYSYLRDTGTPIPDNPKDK", "assay": "S. pyogenes streptokinase expression inhibitors, potency, dose response, plasminogen activation absorbance, OD405 (AID 1914);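 also: secreted streptokinase activity via plasminogen activation per viability signal from cell pellet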", "assay_type": "functional, Streptococcus pyogenes M1 GAS"}, "[17]": {"test_system": "Streptococcus", "assay": "Group A Streptococcus viability loss, dose response, counter-screen for streptokinase expression inhibitor project, luminescence, BacTiterGlo (AID 1915);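 also: potency for reduction of bacterial viability or growth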", "assay_type": "functional, organism-based"}},
  "note": "The source made the active and inactive calls.",
  "data": [
    {"smiles": "Cc1cccn2c(O)c(C(=O)NC3CCCCC3)c(=O)nc12", "values": [
      {"measurement": "EC50", "setting": "[1]", "value": "> 120 µM (not active)"},
      {"measurement": "EC50", "setting": "[2]", "value": "> 120 µM (not active)"},
      {"measurement": "EC50", "setting": "[3]", "value": "> 120 µM (not active)"}
    ]},
    {"smiles": "Cc1cc(N2CCCCC2)n2ncc(-c3ccc(Cl)cc3)c2n1", "values": [
      {"measurement": "CC50", "setting": "[4]", "value": "> 40 µM (active)"},
      {"measurement": "AC50", "setting": "[5]", "value": "4.92 µM (active)"}
    ]},
    {"smiles": "CC(=O)c1ccc(N2CCN(S(=O)(=O)c3ccc(-c4cnc(C5CC5)o4)cc3)CC2)cc1", "values": [
      {"measurement": "AC50", "setting": "[6]", "value": "5.95 µM (active)"},
      {"measurement": "AC50", "setting": "[7]", "value": "38.7 µM (active)"},
      {"measurement": "AC50", "setting": "[8]", "value": "20.8 µM (active)"},
      {"measurement": "IC50", "setting": "[9]", "value": "24.4 µM (inactive)"},
      {"measurement": "IC50", "setting": "[10]", "value": "11.6 µM (active)"}
    ]},
    {"smiles": "COc1ccc(C2=NN(C(=O)COC(=O)c3ccc(S(C)(=O)=O)c([N+](=O)[O-])c3)C(c3ccco3)C2)cc1", "note": "(stereo not given)", "values": [
      {"measurement": "CC50", "setting": "[4]", "value": "9.73 µM (active)"},
      {"measurement": "AC50", "setting": "[5]", "value": "1.52 µM (active)"}
    ]},
    {"smiles": "CC(C(=O)N1CCN(C)CC1)N1C(=O)c2ccccc2C1=O", "note": "(stereo not given)", "values": [
      {"measurement": "IC50", "setting": "[11]", "value": "> 100 µM (inactive)"}
    ]},
    {"smiles": "CC(=O)c1ccc(NC(=O)COC(=O)c2c3c(nc4ccccc24)/C(=C\\c2cccs2)CCC3)cc1", "values": [
      {"measurement": "CC50", "setting": "[4]", "value": "12.4 µM (active)"},
      {"measurement": "AC50", "setting": "[5]", "value": "3.85 µM (active)"}
    ]},
    {"smiles": "Cn1c(NC(=O)/C=C/c2ccccc2)cc(=O)n(C)c1=O", "values": [
      {"measurement": "EC50", "setting": "[1]", "value": "14.9 µM (active)"},
      {"measurement": "EC50", "setting": "[2]", "value": "26.1 µM (active)"},
      {"measurement": "EC50", "setting": "[3]", "value": "68.7 µM (inconclusive)"}
    ]},
    {"smiles": "O=C(COc1ccc(Br)cc1Cl)NC1CCCCC1", "values": [
      {"measurement": "EC50", "setting": "[1]", "value": "0.174 µM (active)"},
      {"measurement": "EC50", "setting": "[2]", "value": "0.128 µM (inconclusive)"}
    ]},
    {"smiles": "CC1=C(O)C(=O)[C@@H]2O[C@@H]2C1=O", "values": [
      {"measurement": "GI50", "setting": "[12]", "value": "1.09 µM (active)"},
      {"measurement": "GI50", "setting": "[13]", "value": "11.1 µM (inactive)"},
      {"measurement": "GI50", "setting": "[14]", "value": "0.542 µM (active)"}
    ]},
    {"smiles": "CC(=O)Nc1ccc(S(=O)(=O)N2CCN=C2SCc2ccc(C)cc2)cc1", "values": [
      {"measurement": "EC50", "setting": "[1]", "value": "45 µM (active)"},
      {"measurement": "EC50", "setting": "[2]", "value": "48.2 µM (active)"},
      {"measurement": "EC50", "setting": "[15]", "value": "> 150 µM (not active)"},
      {"measurement": "EC50", "setting": "[3]", "value": "8.96 µM (active)"},
      {"measurement": "EC50", "setting": "[16]", "value": "> 150 µM (not active)"},
      {"measurement": "EC50", "setting": "[17]", "value": "> 150 µM (not active)"}
    ]},
    {"smiles": "CCOC(=O)C1CCN(C(=O)c2cc3cc4ccc(C)cc4nc3o2)CC1", "values": [
      {"measurement": "IC50", "setting": "[9]", "value": "11.3 µM (active)"},
      {"measurement": "IC50", "setting": "[10]", "value": "12.2 µM (active)"}
    ]},
    {"smiles": "CCOC(=O)c1c(NC(=O)CSc2nc3cc(OC)ccc3[nH]2)sc2c1CC(C)(C)NC2(C)C", "values": [
      {"measurement": "CC50", "setting": "[4]", "value": "21.6 µM (active)"}
    ]},
    {"smiles": "CC(C)c1nnc(NC(=O)CCC(=O)N2CCN(c3ccc(Cl)cc3)CC2)s1", "values": [
      {"measurement": "CC50", "setting": "[4]", "value": "> 40 µM (active)"}
    ]},
    {"smiles": "Cc1ccc(Cn2nc(C)cc2C(=O)Nc2ccccc2Cl)cc1", "values": [
      {"measurement": "EC50", "setting": "[1]", "value": "1.49 µM (active)"},
      {"measurement": "EC50", "setting": "[2]", "value": "21.3 µM (active)"},
      {"measurement": "EC50", "setting": "[3]", "value": "33.9 µM (active)"}
    ]},
    {"smiles": "CCCCSc1nc(O)c(C(=O)OCC)cc1C#N", "values": [
      {"measurement": "IC50", "setting": "[11]", "value": "> 100 µM (inactive)"}
    ]},
    {"smiles": "Clc1ccc(OCc2cnc(Cl)s2)cc1", "values": [
      {"measurement": "IC50", "setting": "[11]", "value": "13.2 µM (active)"}
    ]},
    {"smiles": "O=[N+]([O-])c1ccc2c(c1)nc1n2CCN(C2CCCCC2)C1", "values": [
      {"measurement": "EC50", "setting": "[1]", "value": "17.6 µM (active)"},
      {"measurement": "EC50", "setting": "[2]", "value": "80.8 µM (active)"}
    ]},
    {"smiles": "CCC(C(=O)Nc1cccc(S(=O)(=O)N(C)c2ccccc2)c1)c1ccccc1", "note": "(stereo not given)", "values": [
      {"measurement": "IC50", "setting": "[11]", "value": "> 100 µM (inactive)"}
    ]},
    {"smiles": "COC(=O)c1cccc(CC2(C)C(=O)Nc3ccc(OC(F)(F)F)cc32)c1", "note": "(stereo not given)", "values": [
      {"measurement": "IC50", "setting": "[11]", "value": "88.5 µM (inactive)"}
    ]},
    {"smiles": "N#CC(OC1OC(COC2OC(CO)C(O)C(O)C2O)C(O)C(O)C1O)c1ccccc1", "note": "(stereo not given)", "values": [
      {"measurement": "GI50", "setting": "[12]", "value": "> 225 µM (inactive)"},
      {"measurement": "GI50", "setting": "[13]", "value": "> 225 µM (inactive)"},
      {"measurement": "GI50", "setting": "[14]", "value": "> 225 µM (inactive)"}
    ]}
  ]
}
